According to patent publication US12540131B2 (Merck Sharp & Dohme LLC, priority 2019, dated 2026):

Molecular target: GST tagged truncated human mutant G2019S LRRK2 (Homo sapiens (Human), UniProt Q5S007, G2019S)
Assay: LRRK2 Km ATP LanthaScreen Assay
Assay type: biochemical
Conditions: G2019S LRRK2, 134 μM ATP (Km ATP), mean values; for IC50: read-out: LRRK2 pIC50 (converted)
Procedure, shortened: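 Enzyme (GST-tagged, truncated) was preincubated with compound for 15 min at RT in 50 mM Tris pH 8.5, 10 mM MgCl2, 0.01% Brij-35, 1 mM EGTA, 2 mM DTT and 0.05 mM orthovanadate. Fluorescein-LRRKtide and 134 μM ATP (Km) were then added for 90 min. EDTA and Tb-anti-pERM antibody stopped the reaction; the TR-FRET 520/495 ratio gave 4-parameter IC50s, reported as mean pIC50.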

Sequence of GST tagged truncated human mutant G2019S LRRK2 (Q5S007 970-2527 G2019S): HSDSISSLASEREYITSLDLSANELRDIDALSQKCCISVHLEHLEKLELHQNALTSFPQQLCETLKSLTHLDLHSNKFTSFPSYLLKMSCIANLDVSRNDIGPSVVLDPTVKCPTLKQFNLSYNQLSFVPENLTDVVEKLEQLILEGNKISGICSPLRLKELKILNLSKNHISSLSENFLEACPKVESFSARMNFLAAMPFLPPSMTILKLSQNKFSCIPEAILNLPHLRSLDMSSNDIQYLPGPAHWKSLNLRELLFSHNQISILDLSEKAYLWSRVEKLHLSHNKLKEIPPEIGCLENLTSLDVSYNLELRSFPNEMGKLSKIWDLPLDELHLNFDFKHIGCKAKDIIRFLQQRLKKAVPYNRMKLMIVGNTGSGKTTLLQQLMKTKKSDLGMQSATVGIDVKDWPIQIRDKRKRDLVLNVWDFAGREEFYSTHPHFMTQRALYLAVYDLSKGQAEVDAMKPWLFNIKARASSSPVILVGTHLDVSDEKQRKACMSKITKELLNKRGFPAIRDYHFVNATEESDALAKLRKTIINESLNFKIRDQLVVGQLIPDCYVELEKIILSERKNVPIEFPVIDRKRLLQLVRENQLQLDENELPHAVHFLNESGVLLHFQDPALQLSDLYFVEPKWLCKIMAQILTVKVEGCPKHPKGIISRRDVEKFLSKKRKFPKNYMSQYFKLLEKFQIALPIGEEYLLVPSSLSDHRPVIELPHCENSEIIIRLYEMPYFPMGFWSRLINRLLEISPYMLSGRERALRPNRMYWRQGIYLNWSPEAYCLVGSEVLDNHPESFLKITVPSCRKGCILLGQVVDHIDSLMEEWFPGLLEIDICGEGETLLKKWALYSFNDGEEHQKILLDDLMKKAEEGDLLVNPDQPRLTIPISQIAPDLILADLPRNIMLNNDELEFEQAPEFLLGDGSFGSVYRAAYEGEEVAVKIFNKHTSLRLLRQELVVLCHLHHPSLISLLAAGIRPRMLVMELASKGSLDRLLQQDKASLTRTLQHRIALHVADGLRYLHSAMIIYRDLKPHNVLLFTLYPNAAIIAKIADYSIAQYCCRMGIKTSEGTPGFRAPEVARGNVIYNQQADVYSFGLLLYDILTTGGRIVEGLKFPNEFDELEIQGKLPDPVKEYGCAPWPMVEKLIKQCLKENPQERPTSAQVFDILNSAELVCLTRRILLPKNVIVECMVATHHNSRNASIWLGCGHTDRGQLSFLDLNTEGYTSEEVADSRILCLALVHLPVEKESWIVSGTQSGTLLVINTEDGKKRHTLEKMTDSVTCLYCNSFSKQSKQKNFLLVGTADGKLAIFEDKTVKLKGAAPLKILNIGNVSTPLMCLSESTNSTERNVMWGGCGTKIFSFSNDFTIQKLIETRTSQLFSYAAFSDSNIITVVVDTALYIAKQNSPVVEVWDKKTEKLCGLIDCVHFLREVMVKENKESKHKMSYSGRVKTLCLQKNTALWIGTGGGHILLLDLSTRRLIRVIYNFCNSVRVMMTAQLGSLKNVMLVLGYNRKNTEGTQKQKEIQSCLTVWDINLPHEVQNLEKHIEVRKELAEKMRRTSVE

Row | Compound | LRRK2 pIC50 | IC50 [nM]
1 | CC1(n2ncc(Nc3ncc4cc(Cl)c([C@@H]5CCN(C6COC6)C[C@H]5F)cc4n3)c2Cl)CC1 (single isomer, unassigned) [Ex-4.27, (3S,4S) or (3R,4R) 6-chloro-N-[5-chloro-1-(1-methylcyclopropyl)-1H-pyrazol-4-yl]-7-[3-fluoro-1-(oxetan-3-yl)piperidin-4-yl]quinazolin-2-amine] | >9.20 | –
2 | Cn1nc(C(F)(F)F)cc1Nc1ncc2cc(Cl)c([C@@H]3CCN([C@]4(C)COC[C@@H]4O)C[C@H]3F)cc2n1 (single isomer, unassigned) [Ex-4.251, (3S,4S)(3S,4S) or (3S,4S)(3R,4R) or (3R,4R)(3S,4S) or (3R,4R)(3R,4R) 4-[4-(6-chloro-2-{[1-methyl-3-(trifluoromethyl)-1H-pyrazol-5-yl]amino}quinazolin-7-yl)-3-fluoropiperidin-1-yl]-4-methyloxolan-3-ol] | 9.05 | –
3 | CC1(N2CCC(n3ncc(Nc4ncc5cc(Cl)c(C6CC67CCC7)cc5n4)c3Cl)CC2)COC1 (single isomer, unassigned) [Ex-2.9, (S) or (R) 6-chloro-N-{5-chloro-1-[1-(3-methyloxetan-3-yl)piperidin-4-yl]-1H-pyrazol-4-yl}-7-(spiro[2.3]hexan-1-yl)quinazolin-2-amine] | – | 36.3
4 | Cc1c(Nc2ncc3cc(Cl)c(C4CCN([C@H]5COC[C@H]5O)CC4)cc3n2)cnn1C12CC(C1)C2 (single isomer, unassigned) [Ex-2.27, (3S,4S) or (3R,4R) 4-[4-(2-{[1-(bicyclo[1.1.1]pentan-1-yl)-5-methyl-1H-pyrazol-4-yl]amino}-6-chloroquinazolin-7-yl)piperidin-1-yl]oxolan-3-ol] | 8.87 | –
5 | CN1CCC(F)(c2cc3nc(Nc4cnn(C5CC5)c4Cl)ncc3cc2Cl)CC1 [Ex-4.36, 6-chloro-N-(5-chloro-1-cyclopropyl-1H-pyrazol-4-yl)-7-(4-fluoro-1-methylpiperidin-4-yl)quinazolin-2-amine] | 8.29 | –
6 | Cn1nc(C2CC2)cc1Nc1ncc2cc(Cl)c(C3CCN([C@@H]4COC[C@@H]4O)CC3)cc2n1 (single isomer, unassigned) [Ex-1.23, (3S,4S) or (3R,4R) 4-(4-{6-chloro-2-[(3-cyclopropyl-1-methyl-1H-pyrazol-5-yl)amino]quinazolin-7-yl}piperidin-1-yl)oxolan-3-ol] | 9.00 | –
7 | Cc1cc2cnc(Nc3cnn(C4CC4)c3C)nc2cc1C1CCN([C@@]2(C)COC[C@H]2O)CC1 (single isomer, unassigned) [Ex-2.38, (3S,4S) or (3R,4R) 4-(4-{2-[(1-cyclopropyl-5-methyl-1H-pyrazol-4-yl)amino]-6-methylquinazolin-7-yl}piperidin-1-yl)-4-methyloxolan-3-ol] | >9.20 | –
8 | CC1(N2CCC(n3cc(Nc4ncc5cc(Cl)c(C6CC67CC7)cc5n4)cn3)CC2)COC1 (single isomer, unassigned) [Ex-2.6, (S) or (R) 6-chloro-N-{1-[1-(3-methyloxetan-3-yl)piperidin-4-yl]-1H-pyrazol-4-yl}-7-(spiro[2.2]pentan-1-yl)quinazolin-2-amine] | – | < 0.631
9 | Cc1cc2cnc(Nc3cnn(C45CC(C4)C5)c3Cl)nc2cc1[C@@H]1CCN([C@@H]2COC[C@@H]2O)C[C@H]1F (single isomer, unassigned) [Ex-8.33, (3S,4S)(3S,4S) or (3S,4S)(3R,4R) or (3R,4R)(3S,4S) or (3R,4R)(3R,4R) 4-[4-(2-{[1-(bicyclo[1.1.1]pentan-1-yl)-5-chloro-1H-pyrazol-4-yl]amino}-6-methylquinazolin-7-yl)-3-fluoropiperidin-1-yl]oxolan-3-ol] | >9.20 | –
10 | [2H]C1([2H])OC([2H])([2H])C1N1CCC(c2cc3nc(Nc4cnn(C5CC5)c4Cl)ncc3cc2Cl)CC1 [Ex-8.16, 6-chloro-N-(5-chloro-1-cyclopropyl-1H-pyrazol-4-yl)-7-(1-(oxetan-3-yl-2,2,4,4-d4)piperidin-4-yl)quinazolin-2-amine] | 9.18 | –
11 | Cc1c(Nc2ncc3cc(Cl)c(C4CCN(CC5(O)CCC5)CC4)cc3n2)cnn1C1CC1 [Ex-4.215, 1-[(4-{6-chloro-2-[(1-cyclopropyl-5-methyl-1H-pyrazol-4-yl)amino]quinazolin-7-yl}piperidin-1-yl)methyl]cyclobutan-1-ol] | 8.57 | –
12 | Cc1c(Nc2ncc3cc(Cl)c(C4CCN(C[C@H](O)c5cc(F)ccc5F)CC4)cc3n2)cnn1C1CC1 [Ex-4.204, (1R)-2-(4-{6-chloro-2-[(1-cyclopropyl-5-methyl-1H-pyrazol-4-yl)amino]quinazolin-7-yl}piperidin-1-yl)-1-(2,5-difluorophenyl)ethan-1-ol] | 7.67 | –
13 | OC1CCCC1N1CC[C@H](c2cc3nc(Nc4cnn(C5CC5)c4Cl)ncc3cc2Cl)[C@@H](F)C1 (single isomer, unassigned) [Ex-4.158, (1S,2R)(3S,4S) or (1R,2S)(3S,4S) or (1R,2R)(3S,4S) or (1S,2S)(3S,4S) or (1S,2R)(3R,4R) or (1R,2S)(3R,4R) or (1R,2R)(3R,4R) or (1S,2S)(3R,4R) 2-(4-{6-chloro-2-[(5-chloro-1-cyclopropyl-1H-pyrazol-4-yl)amino]quinazolin-7-yl}-3-fluoropiperidin-1-yl)cyclopentan-1-ol] | 8.99 | –
14 | Cc1cc2cnc(Nc3cnn(C45CC(C4)C5)c3Cl)nc2cc1[C@H]1CCN([C@@H]2COC[C@@H]2O)C[C@@H]1F (single isomer, unassigned) [Ex-8.35, (3S,4S)(3S,4S) or (3S,4S)(3R,4R) or (3R,4R)(3S,4S) or (3R,4R)(3R,4R) 4-[4-(2-{[1-(bicyclo[1.1.1]pentan-1-yl)-5-chloro-1H-pyrazol-4-yl]amino}-6-methylquinazolin-7-yl)-3-fluoropiperidin-1-yl]oxolan-3-ol] | 8.68 | –
15 | N#CC1CCC(N2CC[C@@H](c3cc4nc(Nc5cnn(C6CC6)c5Cl)ncc4cc3Cl)[C@H](F)C2)C1 (single isomer, unassigned) [Ex-4.111, (1R,3S)-3-((3S,4S) or (1S,3R)-3-((3S,4S) or (1R,3R)-3-((3S,4S) or (1S,3S)-3-((3S,4S) or (1R,3S)-3-((3R,4R) or (1S,3R)-3-((3R,4R) or (1R,3R)-3-((3R,4R) or 1S,3S)-3-((3R,4R) 4-(6-chloro-2-((5-chloro-1-cyclopropyl-1H-pyrazol-4-yl)amino)quinazolin-7-yl)-3-fluoropiperidin-1-yl)cyclopentane-1-carbonitrile] | 8.55 | –
16 | Cc1c(Nc2ncc3cc(Cl)c(C4CCN(C[C@@H](O)c5ccccc5)CC4)cc3n2)cnn1C1CC1 [Ex-4.193, (1S)-2-(4-{6-chloro-2-[(1-cyclopropyl-5-methyl-1H-pyrazol-4-yl)amino]quinazolin-7-yl}piperidin-1-yl)-1-phenylethan-1-ol] | 9.04 | –
17 | CC1(N2CCC(c3cc4nc(Nc5cnn(C67CC(C6)C7)c5Cl)ncc4cc3Cl)CC2)COC1 [Ex-8.38, N-[1-(bicyclo[1.1.1]pentan-1-yl)-5-chloro-1H-pyrazol-4-yl]-6-chloro-7-[1-(3-methyloxetan-3-yl)piperidin-4-yl]quinazolin-2-amine] | >9.20 | –
18 | COC12CC(n3ncc(Nc4ncc5cc(Cl)c([C@@H]6CCN([C@@H]7COC[C@@H]7O)C[C@H]6F)cc5n4)c3Cl)(C1)C2 (single isomer, unassigned) [Ex-4.262, (3S,4S)(3S,4S) or (3S,4S)(3R,4R) or (3R,4R)(3S,4S) or (3R,4R)(3R,4R) 4-(4-(6-chloro-2-((5-chloro-1-(3-methoxybicyclo[1.1.1]pentan-1-yl)-1H-pyrazol-4-yl)amino)quinazolin-7-yl)-3-fluoropiperidin-1-yl)tetrahydrofuran-3-ol] | 9.19 | –
19 | Cn1ncc(Nc2ncc3cc(Cl)c(C4CCN([C@]5(C)COC[C@@H]5O)CC4)cc3n2)c1Cl (single isomer, unassigned) [Ex-2.76, (3S,4S) or (3R,4R) 4-(4-(6-chloro-2-((5-chloro-1-methyl-1H-pyrazol-4-yl)amino)quinazolin-7-yl)piperidin-1-yl)-4-methyltetrahydrofuran-3-ol] | 7.76 | –
20 | CC(C)(O)Cn1ncc(Nc2ncc3cc(Cl)c(C4CCNCC4)cc3n2)c1Cl [Ex-4.94, 1-(5-chloro-4-{[6-chloro-7-(piperidin-4-yl)quinazolin-2-yl]amino}-1H-pyrazol-1-yl)-2-methylpropan-2-ol] | 8.46 | –
21 | Cc1cc2cnc(Nc3cnn(C)c3C(F)(F)F)nc2cc1C1CCN([C@]2(C)COC[C@@H]2O)CC1 (single isomer, unassigned) [Ex-5.16, (3S,4S) or (3R,4R) 4-methyl-4-(4-(6-methyl-2-((1-methyl-5-(trifluoromethyl)-1H-pyrazol-4-yl)amino)quinazolin-7-yl)piperidin-1-yl)tetrahydrofuran-3-ol] | >9.20 | –
22 | Cc1c(Nc2ncc3cc(Cl)c(C4CCN(CC(O)CC(F)(F)F)CC4)cc3n2)cnn1C1CC1 (single isomer, unassigned) [Ex-4.192, (S) or (R) 1-(4-{6-chloro-2-[(1-cyclopropyl-5-methyl-1H-pyrazol-4-yl)amino]quinazolin-7-yl}piperidin-1-yl)-4,4,4-trifluorobutan-2-ol] | – | 1.74
23 | Cc1cc2cnc(Nc3cnn(C)c3C)nc2cc1C1CCN([C@]2(C)COC[C@@H]2O)CC1 (single isomer, unassigned) [Ex-2.81, (3S,4S) or (3R,4R) 4-(4-{2-[(1,5-dimethyl-1H-pyrazol-4-yl)amino]-6-methylquinazolin-7-yl}piperidin-1-yl)-4-methyloxolan-3-ol] | 7.35 | –
24 | C[C@@]1(N2CCC(c3cc4nc(Nc5cnn(C6CC6)c5Cl)ncc4cc3Cl)CC2)COC[C@@H]1O (single isomer, unassigned) [Ex-1.8, (3R,4R)- or (3S,4S)-4-(4-(6-chloro-2-((5-chloro-1-cyclopropyl-1H-pyrazol-4-yl)amino)quinazolin-7-yl)piperidin-1-yl)-4-methyltetrahydrofuran-3-ol] | – | 1.55
